Laboratory results as given in patent publication US7964531B2, “3-phenoxy-4-pyridazinol derivatives and herbicidal composition containing the same” (Mitsui Chemicals Agro, Inc., priority 2001, dated 2011).

Columns and labels:
Assay type in all cases: in vivo
Conditions in all cases: wettable powder applied 3 days after transplanting, judged after 25 days
[1] = test system: transplanted paddy-field rice; test: Test Example 1: crop injury against transplanted paddy-field rice
Method in brief: (§1)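 Herbicidal effect and crop injury were rated 0 (0-10% inhibition) to 5 (91-100%) 25 days after treatment. Water-diluted wettable powder was applied to flooded greenhouse pots 3 days after transplanting 2.2-leaf rice. The pots held seeded weeds and sprouted Cyperus serotinus tubers.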

[2] = test system: barnyardgrass (Echinochloa oryzicola Vasing.); test: Test Example 1: herbicidal effects, paddy-field pot test
Method in brief: as §1

Cyperus serotinus = test: as above
Method in brief: as §1

Scirpus joncoides = test: as above
Method in brief: as §1

[3] = test system: annual broad-leaved weeds (Lindernia spp., Rotala indica); test: as above
Method in brief: as §1

Row | Structure (SMILES) | Crop injury against transplanted rice ([1]; chemical dosage 12.5 g/a) | Crop injury against transplanted rice ([1]; chemical dosage 25 g/a) | Herbicidal effects Barnyard grass ([2]; chemical dosage 12.5 g/a) | Herbicidal effects Barnyard grass ([2]; chemical dosage 25 g/a) | Herbicidal effects Cyperus serotinus (Cyperus serotinus; chemical dosage 12.5 g/a) | Herbicidal effects Cyperus serotinus (Cyperus serotinus; chemical dosage 25 g/a) | Herbicidal effects Scirpus joncoides (Scirpus joncoides; chemical dosage 12.5 g/a) | Herbicidal effects Scirpus joncoides (Scirpus joncoides; chemical dosage 25 g/a) | Herbicidal effects Broad leaf ([3]; chemical dosage 12.5 g/a) | Herbicidal effects Broad leaf ([3]; chemical dosage 25 g/a) | Crop injury against transplanted rice ([1]; chemical dosage 10 g/a) | Crop injury against transplanted rice ([1]; chemical dosage 20 g/a) | Herbicidal effects Barnyard grass ([2]; chemical dosage 10 g/a) | Herbicidal effects Barnyard grass ([2]; chemical dosage 20 g/a) | Herbicidal effects Cyperus serotinus (Cyperus serotinus; chemical dosage 10 g/a) | Herbicidal effects Cyperus serotinus (Cyperus serotinus; chemical dosage 20 g/a) | Herbicidal effects Scirpus joncoides (Scirpus joncoides; chemical dosage 10 g/a) | Herbicidal effects Scirpus joncoides (Scirpus joncoides; chemical dosage 20 g/a) | Herbicidal effects Broad leaf ([3]; chemical dosage 10 g/a) | Herbicidal effects Broad leaf ([3]; chemical dosage 20 g/a) | further results
1 | Oc1cc(Cl)nnc1Oc1ccccc1Br [Example 51] | 0 (Growth inhibition rate; 0 to 10%) | 0 (Growth inhibition rate; 0 to 10%) | 2 (Growth inhibition rate; 31 to 50%) | 2 (Growth inhibition rate; 31 to 50%) | 5 (Growth inhibition rate; 91 to 100%) | 5 (Growth inhibition rate; 91 to 100%) | 3 (Growth inhibition rate; 51 to 70%) | 5 (Growth inhibition rate; 91 to 100%) | 4 (Growth inhibition rate; 71 to 90%) | 5 (Growth inhibition rate; 91 to 100%) |  |  |  |  |  |  |  |  |  |  | 
2 | CCc1cccc(CC)c1Oc1nnc(Cl)cc1O [Example 268] | 1 (Growth inhibition rate; 11 to 30%) | 1 (Growth inhibition rate; 11 to 30%) | 0 (Growth inhibition rate; 0 to 10%) | 1 (Growth inhibition rate; 11 to 30%) | 5 (Growth inhibition rate; 91 to 100%) | 5 (Growth inhibition rate; 91 to 100%) | 5 (Growth inhibition rate; 91 to 100%) | 5 (Growth inhibition rate; 91 to 100%) | 5 (Growth inhibition rate; 91 to 100%) | 5 (Growth inhibition rate; 91 to 100%) |  |  |  |  |  |  |  |  |  |  | 
3 | Oc1cc(Cl)nnc1Oc1c(C2CC2)cccc1C1CC1 [Example 275] |  |  |  |  |  |  |  |  |  |  | 1 (Growth inhibition rate; 11 to 30%) | 3 (Growth inhibition rate; 51 to 70%) | 4 (Growth inhibition rate; 71 to 90%) | 4 (Growth inhibition rate; 71 to 90%) | 5 (Growth inhibition rate; 91 to 100%) | 5 (Growth inhibition rate; 91 to 100%) | 5 (Growth inhibition rate; 91 to 100%) | 5 (Growth inhibition rate; 91 to 100%) | 5 (Growth inhibition rate; 91 to 100%) | 5 (Growth inhibition rate; 91 to 100%) | 
4 | Oc1cc(Cl)nnc1Oc1cc(F)ccc1C1CC1 [Example 216] |  |  |  |  |  |  |  |  |  |  | 0 (Growth inhibition rate; 0 to 10%) | 2 (Growth inhibition rate; 31 to 50%) | 4 (Growth inhibition rate; 71 to 90%) | 4 (Growth inhibition rate; 71 to 90%) | 5 (Growth inhibition rate; 91 to 100%) | 5 (Growth inhibition rate; 91 to 100%) | 5 (Growth inhibition rate; 91 to 100%) | 5 (Growth inhibition rate; 91 to 100%) | 5 (Growth inhibition rate; 91 to 100%) | 5 (Growth inhibition rate; 91 to 100%) | 
5 | COc1ccccc1Oc1nnc(Cl)cc1O [Example 121] | 0 (Growth inhibition rate; 0 to 10%) | 0 (Growth inhibition rate; 0 to 10%) | 2 (Growth inhibition rate; 31 to 50%) | 3 (Growth inhibition rate; 51 to 70%) | 5 (Growth inhibition rate; 91 to 100%) | 5 (Growth inhibition rate; 91 to 100%) | 3 (Growth inhibition rate; 51 to 70%) | 4 (Growth inhibition rate; 71 to 90%) | 5 (Growth inhibition rate; 91 to 100%) | 5 (Growth inhibition rate; 91 to 100%) |  |  |  |  |  |  |  |  |  |  | 
6 | Oc1cc(Cl)nnc1Oc1cccc2sccc12 [Example 185] |  |  |  |  |  |  |  |  |  |  |  |  |  |  |  |  |  |  |  |  | Crop injury against transplanted rice ([1]; chemical dosage 5 g/a): 0 (Growth inhibition rate; 0 to 10%); Herbicidal effects Barnyard grass ([2]; chemical dosage 5 g/a): 1 (Growth inhibition rate; 11 to 30%); Herbicidal effects Cyperus serotinus (Cyperus serotinus; chemical dosage 5 g/a): 3 (Growth inhibition rate; 51 to 70%); Herbicidal effects Scirpus joncoides (Scirpus joncoides; chemical dosage 5 g/a): 2 (Growth inhibition rate; 31 to 50%); Herbicidal effects Broad leaf ([3]; chemical dosage 5 g/a): 3 (Growth inhibition rate; 51 to 70%)
7 | CSCc1c(C)ccc(C)c1Oc1nnc(Cl)cc1O [Example 303] | 0 (Growth inhibition rate; 0 to 10%) | 0 (Growth inhibition rate; 0 to 10%) | 0 (Growth inhibition rate; 0 to 10%) | 1 (Growth inhibition rate; 11 to 30%) | 5 (Growth inhibition rate; 91 to 100%) | 5 (Growth inhibition rate; 91 to 100%) | 3 (Growth inhibition rate; 51 to 70%) | 4 (Growth inhibition rate; 71 to 90%) | 3 (Growth inhibition rate; 51 to 70%) | 4 (Growth inhibition rate; 71 to 90%) |  |  |  |  |  |  |  |  |  |  | 
8 | CC(C)c1ccccc1Oc1nnc(Cl)cc1O [Example 57] | 0 (Growth inhibition rate; 0 to 10%) | 0 (Growth inhibition rate; 0 to 10%) | 2 (Growth inhibition rate; 31 to 50%) | 2 (Growth inhibition rate; 31 to 50%) | 5 (Growth inhibition rate; 91 to 100%) | 5 (Growth inhibition rate; 91 to 100%) | 3 (Growth inhibition rate; 51 to 70%) | 4 (Growth inhibition rate; 71 to 90%) | 5 (Growth inhibition rate; 91 to 100%) | 5 (Growth inhibition rate; 91 to 100%) |  |  |  |  |  |  |  |  |  |  | 
9 | CCc1cccc(Br)c1Oc1nnc(Cl)cc1O [Example 250] |  |  |  |  |  |  |  |  |  |  | 0 (Growth inhibition rate; 0 to 10%) | 0 (Growth inhibition rate; 0 to 10%) | 3 (Growth inhibition rate; 51 to 70%) | 4 (Growth inhibition rate; 71 to 90%) | 5 (Growth inhibition rate; 91 to 100%) | 5 (Growth inhibition rate; 91 to 100%) | 5 (Growth inhibition rate; 91 to 100%) | 5 (Growth inhibition rate; 91 to 100%) | 5 (Growth inhibition rate; 91 to 100%) | 5 (Growth inhibition rate; 91 to 100%) | 
10 | Cc1ccc(S(=O)(=O)Oc2cc(Cl)nnc2Oc2ccccc2C2CC2)cc1 [Example 27] |  |  |  |  |  |  |  |  |  |  | 0 (Growth inhibition rate; 0 to 10%) | 0 (Growth inhibition rate; 0 to 10%) | 2 (Growth inhibition rate; 31 to 50%) | 4 (Growth inhibition rate; 71 to 90%) | 5 (Growth inhibition rate; 91 to 100%) | 5 (Growth inhibition rate; 91 to 100%) | 4 (Growth inhibition rate; 71 to 90%) | 5 (Growth inhibition rate; 91 to 100%) | 5 (Growth inhibition rate; 91 to 100%) | 5 (Growth inhibition rate; 91 to 100%) | 
11 | CC(C)c1cccc(C2CC2)c1Oc1nnc(Cl)cc1O [Example 272] |  |  |  |  |  |  |  |  |  |  | 0 (Growth inhibition rate; 0 to 10%) | 0 (Growth inhibition rate; 0 to 10%) | 0 (Growth inhibition rate; 0 to 10%) | 0 (Growth inhibition rate; 0 to 10%) | 4 (Growth inhibition rate; 71 to 90%) | 4 (Growth inhibition rate; 71 to 90%) | 4 (Growth inhibition rate; 71 to 90%) | 5 (Growth inhibition rate; 91 to 100%) | 5 (Growth inhibition rate; 91 to 100%) | 5 (Growth inhibition rate; 91 to 100%) | 
